Test results taken from ChEMBL document CHEMBL1201862, “PubChem BioAssay data set” (2004).
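Exposure lasted 48 hours, with cells grown in 96-well plates and compounds tested at five concentrations. GI50: concentration for 50% inhibition of growth.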 Calls of active or inactive are those of the source. Cut-off read from the data, not from the text of the source: active = GI50 up to about 1.1 µM and inactive = higher.

Assays:
Assay in all cases: DTP human tumour cell line panel, 48 h
[1] = test system: SF-295
[2] = test system: OVCAR-8
[3] = test system: K562
[4] = test system: SF-268
[5] = test system: TK-10
[6] = test system: UACC-257
[7] = test system: HCT-116
[8] = test system: A549
[9] = test system: DMS-273
[10] = test system: NCI-H226
[11] = test system: MOLT-4
[12] = test system: SNB-19
[13] = test system: HOP-62
[14] = test system: COLO 205
[15] = test system: SW-620
[16] = test system: MCF7
[17] = test system: MDA-MB-435
[18] = test system: NCI/ADR-RES
[19] = test system: SR
[20] = test system: PC-3

`COC1=NCc2ccccc2-c2ccccc21` was tested, and the GI50 [1] was > 100 µM (inactive), the GI50 [2] was > 100 µM (inactive) and the GI50 [3] was > 100 µM (inactive). The GI50 [4] was > 100 µM (inactive), the GI50 [5] was > 100 µM (inactive) and the GI50 [6] was > 100 µM (inactive). The GI50 [7] was > 100 µM (inactive), the GI50 [8] was > 100 µM (inactive) and the GI50 [9] was > 100 µM (inactive). For the same compound, the GI50 [10] was > 100 µM (inactive), the GI50 [11] was > 100 µM (inactive) and the GI50 [12] was > 100 µM (inactive).

With `O=C(n1c2ccccc2c2nnc(S)nc21)C(F)(F)F` the GI50 [13] was > 100 µM (inactive), the GI50 [1] was > 100 µM (inactive) and the GI50 [2] was > 100 µM (inactive). The GI50 [14] was > 100 µM (inactive), the GI50 [3] was > 100 µM (inactive) and the GI50 [4] was > 100 µM (inactive). The GI50 [5] was 0.962 µM (active), the GI50 [7] was > 100 µM (inactive) and the GI50 [8] was > 100 µM (inactive). The GI50 [9] was > 100 µM (inactive), the GI50 [15] was > 100 µM (inactive) and the GI50 [10] was > 100 µM (inactive). The GI50 [11] was > 100 µM (inactive) and the GI50 [12] was > 100 µM (inactive).

In the case of `CC(=O)c1ccc2c3c1[C@H]1O[C@H]1c1cccc(c1-3)[C@@H]1O[C@H]21`, the GI50 [16] is reported as 2.34 µM (inactive), the GI50 [13] is reported as 2.39 µM (inactive) and the GI50 [1] is reported as 4.52 µM (inactive). For the same compound, the GI50 [2] was 1.56 µM (inactive), the GI50 [17] was 1.79 µM (inactive) and the GI50 [14] was 1.71 µM (inactive). The GI50 [3] was 0.444 µM (active), the GI50 [18] was 1.98 µM (inactive) and the GI50 [19] was 4.57 µM (inactive). The GI50 [4] was 1.51 µM (inactive), the GI50 [5] was 4.21 µM (inactive) and the GI50 [6] was 2.04 µM (inactive). For the same compound, the GI50 [7] was 1.74 µM (inactive), the GI50 [8] was 2.92 µM (inactive) and the GI50 [15] was 0.855 µM (active). For the same compound, the GI50 [20] was 2.47 µM (inactive), the GI50 [10] was 29.4 µM (inactive) and the GI50 [11] was 3.06 µM (inactive). For the same compound, the GI50 [12] was 2.98 µM (inactive).

For `COc1cc(OC)cc(C(=O)CC(=O)c2cc(OC)cc(OC)c2)c1`, the GI50 [16] was > 100 µM (inactive), the GI50 [13] was > 100 µM (inactive) and the GI50 [1] was > 100 µM (inactive). For the same compound, the GI50 [2] was > 100 µM (inactive), the GI50 [17] was 87.5 µM (inactive) and the GI50 [14] was > 100 µM (inactive). The GI50 [3] was 46.1 µM (inactive), the GI50 [18] was > 100 µM (inactive) and the GI50 [19] was 47.8 µM (inactive). The GI50 [4] was > 100 µM (inactive), the GI50 [5] was > 100 µM (inactive) and the GI50 [6] was > 100 µM (inactive). For the same compound, the GI50 [7] was 69.2 µM (inactive), the GI50 [8] was > 100 µM (inactive) and the GI50 [15] was 95.1 µM (inactive). For the same compound, the GI50 [20] was 94.4 µM (inactive), the GI50 [10] was > 100 µM (inactive) and the GI50 [11] was > 100 µM (inactive). The GI50 [12] was > 100 µM (inactive).

`Cc1cn(C2C=CC(COP(=O)(OCc3ccc([N+](=O)[O-])o3)N(C)CCCCCl)O2)c(=O)[nH]c1=O` (configuration not stated) was tested, and the GI50 [16] was 4.99 µM (inactive), the GI50 [13] was 16 µM (inactive) and the GI50 [1] was 15.6 µM (inactive). The GI50 [2] was 13.9 µM (inactive), the GI50 [17] was 1.8 µM (inactive) and the GI50 [14] was 2.4 µM (inactive). The GI50 [3] was 2.08 µM (inactive), the GI50 [18] was 33.8 µM (inactive) and the GI50 [19] was 1.89 µM (inactive). The GI50 [4] was 7.57 µM (inactive), the GI50 [5] was 16.6 µM (inactive) and the GI50 [6] was 5.55 µM (inactive). The GI50 [7] was 8.65 µM (inactive), the GI50 [8] was 10.9 µM (inactive) and the GI50 [15] was 10.1 µM (inactive). The GI50 [20] was 12.8 µM (inactive), the GI50 [10] was 10.6 µM (inactive) and the GI50 [11] was 10.1 µM (inactive). The GI50 [12] was 6.58 µM (inactive).

With `CCC(=S)N(C)O` the GI50 [16] was 3.71 µM (inactive), the GI50 [13] was 43.5 µM (inactive) and the GI50 [1] was 34.2 µM (inactive). For the same compound, the GI50 [2] was 40.3 µM (inactive), the GI50 [17] was 15.6 µM (inactive) and the GI50 [14] was 0.634 µM (active). For the same compound, the GI50 [3] was 0.52 µM (active), the GI50 [18] was 17.1 µM (inactive) and the GI50 [19] was 1.02 µM (active). The GI50 [4] was 47.4 µM (inactive), the GI50 [5] was 60.1 µM (inactive) and the GI50 [6] was 50.9 µM (inactive). For the same compound, the GI50 [7] was 2.39 µM (inactive), the GI50 [8] was 20.3 µM (inactive) and the GI50 [15] was 4.09 µM (inactive). The GI50 [20] was 8.69 µM (inactive), the GI50 [10] was 54.7 µM (inactive) and the GI50 [11] was 1.88 µM (inactive). The GI50 [12] was 63.5 µM (inactive).

In the case of `C=CC(=O)NCCC(=O)OCn1cc(F)c(=O)[nH]c1=O`, the GI50 [16] is reported as 1.2 µM (inactive), the GI50 [13] is reported as 4.98 µM (inactive) and the GI50 [1] is reported as 15.5 µM (inactive). For the same compound, the GI50 [2] was 11.5 µM (inactive), the GI50 [17] was 5.32 µM (inactive) and the GI50 [14] was 1.37 µM (inactive). For the same compound, the GI50 [3] was 9.66 µM (inactive), the GI50 [18] was 27 µM (inactive) and the GI50 [19] was 2.12 µM (inactive). For the same compound, the GI50 [4] was 18.7 µM (inactive), the GI50 [5] was 0.838 µM (active) and the GI50 [6] was 7.11 µM (inactive). For the same compound, the GI50 [7] was 3.24 µM (inactive), the GI50 [8] was 2.36 µM (inactive) and the GI50 [15] was 17.2 µM (inactive). For the same compound, the GI50 [20] was 9.12 µM (inactive), the GI50 [10] was 13.3 µM (inactive) and the GI50 [11] was 6.01 µM (inactive). The GI50 [12] was 39.4 µM (inactive).

`O=C(C/N=C(\CN(c1ccccc1)c1ccccc1)Oc1ccc(Cl)cc1Cl)n1ccnc1` was tested, and the GI50 [16] was > 100 µM (inactive), the GI50 [13] was > 100 µM (inactive) and the GI50 [1] was > 100 µM (inactive). For the same compound, the GI50 [2] was > 100 µM (inactive), the GI50 [17] was > 100 µM (inactive) and the GI50 [14] was > 100 µM (inactive). For the same compound, the GI50 [3] was > 100 µM (inactive), the GI50 [18] was > 100 µM (inactive) and the GI50 [19] was > 100 µM (inactive). For the same compound, the GI50 [4] was > 100 µM (inactive), the GI50 [5] was > 100 µM (inactive) and the GI50 [6] was > 100 µM (inactive). For the same compound, the GI50 [7] was > 100 µM (inactive), the GI50 [8] was > 100 µM (inactive) and the GI50 [15] was > 100 µM (inactive). The GI50 [20] was > 100 µM (inactive), the GI50 [10] was > 100 µM (inactive) and the GI50 [11] was > 100 µM (inactive). The GI50 [12] was > 100 µM (inactive).

With `COc1ccc(C(SCCO)(c2ccccc2)c2ccccc2)cc1` the GI50 [16] was 10.5 µM (inactive), the GI50 [13] was 15.4 µM (inactive) and the GI50 [1] was 13.4 µM (inactive). For the same compound, the GI50 [2] was 17.9 µM (inactive), the GI50 [17] was 10.5 µM (inactive) and the GI50 [14] was 14 µM (inactive). The GI50 [3] was 12.9 µM (inactive), the GI50 [18] was 14.8 µM (inactive) and the GI50 [19] was 21.6 µM (inactive). The GI50 [4] was 14.6 µM (inactive), the GI50 [5] was 18.8 µM (inactive) and the GI50 [6] was 17.4 µM (inactive). The GI50 [7] was 10.9 µM (inactive), the GI50 [8] was 12.2 µM (inactive) and the GI50 [15] was 20.6 µM (inactive). For the same compound, the GI50 [20] was 11.9 µM (inactive), the GI50 [10] was 12.7 µM (inactive) and the GI50 [11] was 15.7 µM (inactive). For the same compound, the GI50 [12] was 15.7 µM (inactive).

In the case of `COc1ccc(NS(=O)(=O)c2ccc(NC(NC(=O)CC(C)C)(C(F)(F)F)C(F)(F)F)cc2)nn1`, the GI50 [16] is reported as > 100 µM (inactive), the GI50 [13] is reported as > 100 µM (inactive) and the GI50 [1] is reported as > 100 µM (inactive). The GI50 [2] was > 100 µM (inactive), the GI50 [17] was > 100 µM (inactive) and the GI50 [14] was > 100 µM (inactive). For the same compound, the GI50 [3] was > 100 µM (inactive), the GI50 [18] was > 100 µM (inactive) and the GI50 [19] was > 100 µM (inactive). For the same compound, the GI50 [4] was > 100 µM (inactive), the GI50 [5] was > 100 µM (inactive) and the GI50 [6] was > 100 µM (inactive). For the same compound, the GI50 [7] was > 100 µM (inactive), the GI50 [8] was > 100 µM (inactive) and the GI50 [15] was > 100 µM (inactive). For the same compound, the GI50 [20] was > 100 µM (inactive), the GI50 [10] was > 100 µM (inactive) and the GI50 [11] was > 100 µM (inactive). For the same compound, the GI50 [12] was > 100 µM (inactive).

In the case of `CC(C)(C)C(=O)CP(=O)(O)O`, the GI50 [16] is reported as > 100 µM (inactive), the GI50 [13] is reported as > 100 µM (inactive) and the GI50 [1] is reported as > 100 µM (inactive). The GI50 [2] was > 100 µM (inactive), the GI50 [17] was > 100 µM (inactive) and the GI50 [14] was > 100 µM (inactive). The GI50 [3] was > 100 µM (inactive), the GI50 [18] was > 100 µM (inactive) and the GI50 [19] was > 100 µM (inactive). The GI50 [4] was > 100 µM (inactive), the GI50 [5] was > 100 µM (inactive) and the GI50 [6] was > 100 µM (inactive). The GI50 [7] was > 100 µM (inactive), the GI50 [8] was > 100 µM (inactive) and the GI50 [15] was > 100 µM (inactive). The GI50 [20] was > 100 µM (inactive), the GI50 [10] was > 100 µM (inactive) and the GI50 [11] was > 100 µM (inactive). For the same compound, the GI50 [12] was > 100 µM (inactive).
